The values that follow are results of earlier work, collected in patent publication EP1227797B1, “SOLID DISPERSION PHARMACEUTICAL FORMULATIONS” (ABBOTT LABORATORIES, priority 1999, dated 2001).

The conditions of the series: PEG solid dispersion formulation.

For the compound `O=C1N(Cc2ccc(CO)cc2)[C@H](Cc2ccccc2)[C@H](O)[C@@H](O)[C@@H](Cc2ccccc2)N1Cc1ccc(CO)cc1` [DMP 323], the bioavailability result is recorded as “unable to improve the bioavailability”.
